The structures appear in SMILES notation. Several values for one entry are separate records, joined by “and”; a condition that tells them apart may be missing. Identical values can stand only once. Inconclusive results and toxic doses are left out.

The subject of this test is BDF1 mice, B16 melanoma ip, median survival T/C. As to the kind of experiment: NCI In Vivo Anticancer Drug Screen. Data for tumor model B16 Melanoma (intraperitoneal) in B6D2F1 (BDF1) mice. The settings on record: endpoint: median survival time, higher = longer survival. The essentials:
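Antitumor activity is assessed in mice bearing a transplanted tumor, with survival or tumor size compared against vehicle-dosed controls and expressed as T/C.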

Where [1] appears, read: dose: 1.25 mg/kg/injection, schedule: Q01DX009 (ip), vehicle: saline.
Setting [2] is: dose: 2.5 mg/kg/injection, schedule: Q01DX009 (ip), vehicle: saline.
Setting [3] is: dose: 12.5 mg/kg/injection, schedule: Q01DX009 (ip), vehicle: Klucel (hydroxypropylcellulose) (HPC).
Where [4] appears, read: dose: 25.0 mg/kg/injection, schedule: Q01DX009 (ip), vehicle: Klucel (hydroxypropylcellulose) (HPC).
Where [5] appears, read: dose: 5.0 mg/kg/injection, schedule: Q01DX009 (ip), vehicle: Klucel (hydroxypropylcellulose) (HPC).
[6] abbreviates: dose: 10.0 mg/kg/injection, schedule: Q01DX009 (ip), vehicle: Klucel (hydroxypropylcellulose) (HPC).
Setting [7] is: dose: 25.0 mg/kg/injection, schedule: Q01DX009 (ip), vehicle: saline with Tween-80.
Setting [8] is: dose: 100.0 mg/kg/injection, schedule: Q01DX009 (ip), vehicle: water.
[9] abbreviates: dose: 200.0 mg/kg/injection, schedule: Q01DX009 (ip), vehicle: water.
Where [10] appears, read: dose: 200.0 mg/kg/injection, schedule: Q01DX009 (ip), vehicle: Klucel (hydroxypropylcellulose) (HPC).
Where [11] appears, read: dose: 100.0 mg/kg/injection, schedule: Q01DX009 (ip), vehicle: saline with Tween-80.

Take `CN1CCN=C1c1ccc(NC(=O)c2ccc(C(=O)Nc3ccc(C4=NCCN4C)cc3)c(N)c2)cc1`: the T/C under setting [1] was 115 % of control; the T/C (dose: 1.25 mg/kg/injection, schedule: Q04DX003 (ip), vehicle: saline) is 89 % of control; the T/C under setting [2] is 117 % of control; the T/C (dose: 2.5 mg/kg/injection, schedule: Q04DX003 (ip), vehicle: saline) is 94 % of control; the T/C (dose: 5.0 mg/kg/injection, schedule: Q01DX009 (ip), vehicle: saline) was 115 % of control; the T/C (dose: 5.0 mg/kg/injection, schedule: Q04DX003 (ip), vehicle: saline) is 100 % of control.

For `CC(=O)NC(C=O)C(O)C(O)C(O)C(=O)O` (stereo not drawn) (tested in a mixture with another compound), the T/C is, setting by setting: (dose: 6.25 mg/kg/injection, schedule: Q01DX009 (ip), vehicle: Klucel (hydroxypropylcellulose) (HPC)) 100 % of control; under setting [3], 107 % of control; under setting [4], 98 % of control.

Consider `CC(=O)C1(O)CCCCC1`, for which the T/C was 95 % of control (dose: 100.0 mg/kg/injection, schedule: Q04DX003 (ip), vehicle: saline); 100 % of control (dose: 200.0 mg/kg/injection, schedule: Q04DX003 (ip), vehicle: saline); 100 % of control (dose: 400.0 mg/kg/injection, schedule: Q04DX003 (ip), vehicle: saline).

Regarding `Cc1cc(NCCN(C(C)C)C(C)C)nc(/N=C(\N)Nc2ccc(Cl)c(C(F)(F)F)c2)n1`, the T/C was 101 % of control (dose: 2.5 mg/kg/injection, schedule: Q04DX003 (ip), vehicle: Klucel (hydroxypropylcellulose) (HPC)); 92 % of control under setting [5]; 93 % of control (dose: 5.0 mg/kg/injection, schedule: Q04DX003 (ip), vehicle: Klucel (hydroxypropylcellulose) (HPC)); 91 % of control under setting [6]; 102 % of control (dose: 10.0 mg/kg/injection, schedule: Q04DX003 (ip), vehicle: Klucel (hydroxypropylcellulose) (HPC)); 111 % of control (dose: 20.0 mg/kg/injection, schedule: Q04DX003 (ip), vehicle: Klucel (hydroxypropylcellulose) (HPC)).

On to `O=C(Nc1ccccc1O)/C(Cl)=C/Cl`, for which the T/C reads like this: under setting [3], 92 % of control; under setting [4], 93 % of control; (dose: 50.0 mg/kg/injection, schedule: Q01DX009 (ip), vehicle: Klucel (hydroxypropylcellulose) (HPC)) 90 % of control.

As to `ClC1=C(Cl)C(Cl)=C(Cl)C1=Cc1ccccc1`, the T/C by setting is: (dose: 1.56 mg/kg/injection, schedule: Q01DX009 (ip), vehicle: saline with Tween-80) 97 % of control; (dose: 3.13 mg/kg/injection, schedule: Q01DX009 (ip), vehicle: saline with Tween-80) 92 % of control; (dose: 6.25 mg/kg/injection, schedule: Q01DX009 (ip), vehicle: saline with Tween-80) 102 % of control; (dose: 12.5 mg/kg/injection, schedule: Q01DX009 (ip), vehicle: saline with Tween-80) 111 % of control; under setting [7], 95 % of control.

As to `CCCCCCCCCCCCSC1=CC(=O)C(OC)=C(OC)C1=O`, the T/C runs as follows: (dose: 6.25 mg/kg/injection, schedule: Q01DX030 (ip), vehicle: saline with Tween-80) 99 % of control; (dose: 12.5 mg/kg/injection, schedule: Q01DX030 (ip), vehicle: saline with Tween-80) 95 % of control; (dose: 25.0 mg/kg/injection, schedule: Q01DX030 (ip), vehicle: saline with Tween-80) 91 % of control.

Turning to `C/C=C/C(=O)OCC1CCN(C)C1` (stereo not drawn), the T/C reads like this: (dose: 50.0 mg/kg/injection, schedule: Q01DX009 (ip), vehicle: water) 98 % of control; under setting [8], 107 % of control; under setting [9], 90 % of control.

In the case of `CNC1C(OC2C(OC3C(O)C(O)C(N=C(N)N)C(O)C3N=C(N)N)OC(C)C2(O)C=O)OC(CO)C(O)C1O` (stereo not drawn), the T/C is 110 % of control under setting [8] and 108 % of control under setting [9].

For the molecule `O=C1C(Cl)=C(N2CC2)C(=O)C(Cl)=C1N1CC1`, the T/C (dose: 0.62 mg/kg/injection, schedule: Q01DX009 (ip), vehicle: Klucel (hydroxypropylcellulose) (HPC)) was 105 % of control; the T/C (dose: 1.25 mg/kg/injection, schedule: Q01DX009 (ip), vehicle: Klucel (hydroxypropylcellulose) (HPC)) was 105 % of control; the T/C (dose: 2.5 mg/kg/injection, schedule: Q01DX009 (ip), vehicle: Klucel (hydroxypropylcellulose) (HPC)) is 114 % of control; the T/C under setting [2] was 115 % of control; the T/C under setting [5] was 123 % of control; the T/C under setting [6] is 124 % of control. Moreover, under “dose: 20.0 mg/kg/injection, schedule: Q01DX009 (ip), vehicle: Klucel (hydroxypropylcellulose) (HPC)”, the T/C is 124 % of control.

Turning to `O=[N+]([O-])c1cc2c(c([N+](=O)[O-])c1)OCOC2`, under setting [10], the T/C is 100 % of control.

With `CCN(CC)CCCC(C)Nc1c2ccc(Cl)cc2nc2ccc(OC)cc12` (stereo not drawn), the T/C runs as follows: (dose: 8.0 mg/kg/injection, schedule: Q01DX009 (ip), vehicle: saline with Tween-80) 94 % of control and 102 % of control; (dose: 8.0 mg/kg/injection, schedule: Q01DX009 (ip), vehicle: saline) 100 % of control; (dose: 8.0 mg/kg/injection, schedule: Q01DX009 (ip), vehicle: suspension in saline) 103 % of control; (dose: 16.0 mg/kg/injection, schedule: Q01DX009 (ip), vehicle: saline with Tween-80) 88 % of control and 107 % of control; (dose: 16.0 mg/kg/injection, schedule: Q01DX009 (ip), vehicle: saline) 102 % of control; (dose: 16.0 mg/kg/injection, schedule: Q01DX009 (ip), vehicle: suspension in saline) 105 % of control. Further, the T/C runs as follows: (dose: 20.0 mg/kg/injection, schedule: Q04DX003 (ip), vehicle: saline with Tween-80) 96 % of control; (dose: 32.0 mg/kg/injection, schedule: Q01DX009 (ip), vehicle: saline with Tween-80) 116 % of control and 118 % of control; (dose: 32.0 mg/kg/injection, schedule: Q01DX009 (ip), vehicle: saline) 104 % of control; (dose: 32.0 mg/kg/injection, schedule: Q01DX009 (ip), vehicle: suspension in saline) 107 % of control; (dose: 40.0 mg/kg/injection, schedule: Q04DX003 (ip), vehicle: saline with Tween-80) 105 % of control; (dose: 80.0 mg/kg/injection, schedule: Q04DX003 (ip), vehicle: saline with Tween-80) 101 % of control. Further, the T/C (dose: 128.0 mg/kg/injection, schedule: Q01DX009 (ip), vehicle: saline with Tween-80) is 152 % of control.

`COC(=O)C(C)CC(C)(C=O)OC` (stereo not drawn): the T/C under setting [11] was 97 % of control; the T/C (dose: 200.0 mg/kg/injection, schedule: Q01DX009 (ip), vehicle: saline with Tween-80) is 100 % of control; the T/C (dose: 400.0 mg/kg/injection, schedule: Q01DX009 (ip), vehicle: saline with Tween-80) is 90 % of control.

In the case of `CCOC(=O)c1[nH]c(C#N)c(C(=O)OCC)c1C`, the T/C runs as follows: under setting [7], 95 % of control; (dose: 50.0 mg/kg/injection, schedule: Q01DX009 (ip), vehicle: saline with Tween-80) 95 % of control; under setting [11], 88 % of control.

Regarding `Cc1cc(Cl)ccc1NS(=O)(=O)c1ccccc1`, the T/C (dose: 100.0 mg/kg/injection, schedule: Q01DX009 (ip), vehicle: Klucel (hydroxypropylcellulose) (HPC)) is 88 % of control and the T/C under setting [10] was 88 % of control.

As to `Nc1c2c(nc3ccccc13)CCCC2`, the T/C by setting is: (dose: 0.19 mg/kg/injection, schedule: Q01DX009 (ip), vehicle: saline) 95 % of control; (dose: 0.39 mg/kg/injection, schedule: Q01DX009 (ip), vehicle: saline) 95 % of control; (dose: 0.78 mg/kg/injection, schedule: Q01DX009 (ip), vehicle: saline) 100 % of control; (dose: 1.56 mg/kg/injection, schedule: Q01DX009 (ip), vehicle: saline) 95 % of control; (dose: 3.12 mg/kg/injection, schedule: Q01DX009 (ip), vehicle: saline) 102 % of control; (dose: 6.25 mg/kg/injection, schedule: Q01DX009 (ip), vehicle: saline) 91 % of control. Further, where the note is “dose: 12.5 mg/kg/injection, schedule: Q01DX009 (ip), vehicle: saline”, the T/C was 100 % of control.

Turning to `C[C@@H]1O[C@@H](O[C@H]2CC[C@]3(C=O)[C@H]4CC[C@]5(C)[C@@H](c6ccc(=O)oc6)CC[C@]5(O)[C@@H]4CC[C@]3(O)C2)[C@H](O)[C@H](O)[C@H]1O[C@@H]1O[C@H](CO)[C@@H](O)[C@H](O)[C@H]1O`, the T/C was 102 % of control (dose: 0.63 mg/kg/injection, schedule: Q01DX009 (ip), vehicle: saline); 92 % of control under setting [1]; 90 % of control under setting [2].
